Values of other authors as cited in patent publication US20060035317A1, “Effect of treatment with 4,5-dihydroxy-2-cyclopenten-1-one (dhcp) on gene expression and quorum-sensing in bacteria” (priority 2002, published 2006).
Like-named read-outs stand apart in the source and are kept apart here.

System: E. coli (gene expression)
Details: Wang et al., 2001, cited from earlier work

c1ccc2[nH]ccc2c1 [indole]
Induction of gene by indole (gene cysK): induces
Induction of gene by indole (gene gabT): not
